Source: paper PMC6446049 (Alzheimer's & Dementia : Translational Research & Clinical …, 2019)

Experiments:
[1] = tested on: healthy elderly subjects (scopolamine challenge); assay: Adaptive tracking; assay type: in vivo, human; settings: for Adaptive tracking: vs placebo (95% CI), scopolamine 0.3 mg i.v.
[2] = tested on: healthy elderly subjects (scopolamine challenge); assay: Body sway meter; assay type: in vivo, human; settings: scopolamine alone 0.3 mg i.v.
[3] = tested on: healthy elderly subjects (scopolamine challenge); assay: N-back test in scopolamine challenge; assay type: in vivo, human; settings: for N-back, 0-back accuracy / N-back, 0-back reaction time / N-back, 1-back accuracy / N-back, 2-back accuracy / N-back, 2-back reaction time: vs placebo (95% CI), scopolamine 0.3 mg i.v.
[4] = tested on: healthy elderly subjects (scopolamine challenge); assay: Simple reaction time task in scopolamine challenge; assay type: in vivo, human; settings: scopolamine alone 0.3 mg i.v.
[5] = tested on: healthy elderly subjects (scopolamine challenge); assay: Pharmaco-electroencephalography in scopolamine challenge; assay type: in vivo, human; settings: scopolamine alone 0.3 mg i.v.
[6] = tested on: healthy elderly subjects (scopolamine challenge); assay: Saccadic eye movements in scopolamine challenge; assay type: in vivo, human; settings: for Saccadic inaccuracy / Saccadic reaction time: vs placebo (95% CI), scopolamine 0.3 mg i.v.
healthy subjects = settings: scopolamine alone, previous study; cited from earlier work
healthy volunteers [7] = settings: 0.5 mg intravenously; healthy young volunteers; cited from earlier work
[8] = tested on: healthy elderly subjects (scopolamine challenge); assay: Safety assessment: adverse events, vital signs, ECG, laboratory; assay type: in vivo, human; settings: scopolamine 0.3 mg i.v.
healthy volunteers [9] = settings: single oral doses; cited from earlier work
[10] = tested on: patients with mild-to-moderate Alzheimer's disease; settings: cited from earlier work
Plasma pharmacokinetics = settings: noncompartmental analysis
[11] = DPZ placebo + EVP-6124 0.3 mg, N 12
[12] = DPZ placebo + EVP-6124 1 mg, N 11
[13] = DPZ placebo + EVP-6124 2 mg, N 12
[14] = DPZ placebo + EVP-6124 4 mg, N 12
[15] = DPZ 2.5 mg + EVP-6124 placebo, N 11
[16] = DPZ 5.0 mg + EVP-6124 placebo, N 10

## CN1[C@@H]2C[C@@H](OC(=O)[C@H](CO)c3ccccc3)C[C@H]1[C@@H]1O[C@@H]12 [scopolamine]
[1]; scopolamine alone 0.3 mg i.v.
  performance on adaptive tracking: worsened performance
[2]
  performance on body sway: worsened performance
[3]; scopolamine alone 0.3 mg i.v.
  performance on N-back: worsened performance
[4]
  performance on SRT: worsened performance
[5]
  EEG alpha frequency: decrease
  EEG beta frequency: did not affect
  EEG delta frequency: increase
  EEG theta frequency: did not affect
[6]; scopolamine alone 0.3 mg i.v.
  performance on saccadic eye movements: worsened performance
Healthy subjects
  reduction of adaptive tracking scores: 42%
Healthy volunteers [7]
  cognitive effect of scopolamine: significant cognitive deficits

## O=C(N[C@H]1CN2CCC1CC2)c1cc2cccc(Cl)c2s1 [EVP-6124]
[1]; DPZ placebo + EVP-6124 0.3 mg
  Adaptive tracking: −1.23 (−2.80, 0.34) P = .1200%
[1]; DPZ placebo + EVP-6124 1 mg
  Adaptive tracking: 0.03 (−1.56, 1.63) P = .9671%
[1]; DPZ placebo + EVP-6124 2 mg
  Adaptive tracking: −0.83 (−2.33, 0.67) P = .2691%
[1]; DPZ placebo + EVP-6124 4 mg
  Adaptive tracking: −0.26 (−1.76, 1.24) P = .7281%
[3]; DPZ placebo + EVP-6124 0.3 mg
  N-back, 0-back accuracy: 0.02 (−0.04, 0.08) P = .5073%
  N-back, 0-back reaction time: 8 (−12, 29) P = .4004 ms
  N-back, 1-back accuracy: 0.02 (−0.05, 0.10) P = .5558%
  N-back, 2-back accuracy: −0.02 (−0.11, 0.07) P = .6878%
  N-back, 2-back reaction time: −5 (−36, 25) P = .7210 ms
[3]; DPZ placebo + EVP-6124 1 mg
  N-back, 0-back accuracy: 0.04 (−0.03, 0.10) P = .2318%
  N-back, 0-back reaction time: −17 (−37, 4) P = .1085 ms
  N-back, 1-back accuracy: 0.04 (−0.04, 0.12) P = .3062%
  N-back, 2-back accuracy: 0.01 (−0.08, 0.10) P = .8796%
  N-back, 2-back reaction time: −3 (−33, 28) P = .8693 ms
[3]; DPZ placebo + EVP-6124 2 mg
  N-back, 0-back accuracy: 0.05 (−0.01, 0.11) P = .0818%
  N-back, 0-back reaction time: −5 (−25, 15) P = .6209 ms
  N-back, 2-back accuracy: 0.03 (−0.06, 0.13) P = .4557%
  N-back, 2-back reaction time: 1 (−29, 31) P = .9305 ms
[3]; DPZ placebo + EVP-6124 4 mg
  N-back, 0-back reaction time: −16 (−36, 4) P = .1151 ms
  N-back, 1-back accuracy: 0.05 (−0.03, 0.12) P = .2385%
  N-back, 2-back accuracy: −0.02 (−0.11, 0.07) P = .7181%
  N-back, 2-back reaction time: −8 (−39, 22) P = .5733 ms
[6]; DPZ placebo + EVP-6124 0.3 mg
  Saccadic inaccuracy: 0.6 (−0.2, 1.4) P = .1224%
  Saccadic reaction time: −4 (−13, 5) P = .4018 ms
[6]; DPZ placebo + EVP-6124 1 mg
  Saccadic inaccuracy: 0.0 (−0.8, 0.8) P = .9525%
  Saccadic reaction time: −2 (−12, 7) P = .5871 ms
[6]; DPZ placebo + EVP-6124 2 mg
  Saccadic inaccuracy: −0.1 (−0.9, 0.6) P = .7196%
  Saccadic reaction time: −3 (−12, 6) P = .4605 ms
[6]; DPZ placebo + EVP-6124 4 mg
  Saccadic inaccuracy: 0.3 (−0.5, 1.1) P = .4213%
  Saccadic reaction time: 3 (−6, 11) P = .5707 ms
[8]; [11]
  Disturbance in attention, treatment-related adverse event, subjects n (%): 2 (16.7%)
  Dizziness, treatment-related adverse event, subjects n (%): 6 (50.0%)
  Dry mouth, treatment-related adverse event, subjects n (%): 8 (66.7%)
  Gait disturbance, treatment-related adverse event, subjects n (%): 1 (8.3%)
  Headache, treatment-related adverse event, subjects n (%): 1 (8.3%)
  Somnolence, treatment-related adverse event, subjects n (%): 6 (50.0%)
[8]; [12]
  Disturbance in attention, treatment-related adverse event, subjects n (%): 2 (18.2%)
  Dizziness, treatment-related adverse event, subjects n (%): 3 (27.3%)
  Gait disturbance, treatment-related adverse event, subjects n (%): 1 (9.1%)
  Headache, treatment-related adverse event, subjects n (%): 3 (27.3%)
  Somnolence, treatment-related adverse event, subjects n (%): 5 (45.5%)
[8]; [13]
  Disturbance in attention, treatment-related adverse event, subjects n (%): 1 (8.3%)
  Dizziness, treatment-related adverse event, subjects n (%): 4 (33.3%)
  Dry mouth, treatment-related adverse event, subjects n (%): 10 (83.3%)
  Gait disturbance, treatment-related adverse event, subjects n (%): 1 (8.3%)
  Somnolence, treatment-related adverse event, subjects n (%): 8 (66.7%)
[8]; [14]
  Disturbance in attention, treatment-related adverse event, subjects n (%): 2 (16.7%)
  Dizziness, treatment-related adverse event, subjects n (%): 5 (41.7%)
  Dry mouth, treatment-related adverse event, subjects n (%): 10 (83.3%)
  Gait disturbance, treatment-related adverse event, subjects n (%): 3 (25.0%)
  Headache, treatment-related adverse event, subjects n (%): 1 (8.3%)
  Somnolence, treatment-related adverse event, subjects n (%): 7 (58.3%)
Healthy volunteers [9]
  dose at which effects on the Digit Symbol Substitution Test were most prevalent: 20 mg
[10]
  reason why phase III trials were halted in 2015: gastrointestinal adverse events
Plasma pharmacokinetics
  EVP-6124 pharmacokinetic parameters with or without donepezil: similar

## COc1cc2c(cc1OC)C(=O)C(CC1CCN(Cc3ccccc3)CC1)C2 (centres unmarked) [DPZ, donepezil, reference compound]
[1]; DPZ 2.5 mg + EVP-6124 placebo
  Adaptive tracking: 1.49 (0.20, 2.77) P = .0247%
[1]; DPZ 5 mg + EVP-placebo
  Adaptive tracking: 0.72 (−0.76, 2.20) P = .3297%
[3]; DPZ 2.5 mg + EVP-6124 placebo
  N-back, 0-back accuracy: 0.03 (−0.05, 0.11) P = .4512%
  N-back, 0-back reaction time: −24 (−48, 1) P = .0615 ms
  N-back, 1-back accuracy: −0.00 (−0.12, 0.11) P = .9598%
  N-back, 2-back accuracy: 0.04 (−0.08, 0.17) P = .5034%
  N-back, 2-back reaction time: −27 (−70, 16) P = .2115 ms
[3]; DPZ 5 mg + EVP-placebo
  N-back, 0-back accuracy: 0.04 (−0.02, 0.10) P = .1614%
  N-back, 0-back reaction time: −18 (−36, −1) P = .0386 ms
  N-back, 1-back accuracy: 0.03 (−0.05, 0.11) P = .4286%
  N-back, 2-back accuracy: 0.02 (−0.08, 0.11) P = .7469%
  N-back, 2-back reaction time: 35 (−1, 70) P = .0541 ms
[6]; DPZ 2.5 mg + EVP-6124 placebo
  Saccadic inaccuracy: −1.4 (−2.7, −0.1) P = .0311%
  Saccadic reaction time: −4 (−20, 11) P = .5539 ms
[6]; DPZ 5 mg + EVP-placebo
  Saccadic inaccuracy: 0.0 (−0.9, 1.0) P = .9433%
  Saccadic reaction time: −11 (−20, −2) P = .0190 ms
[8]; [15]
  Headache, treatment-related adverse event, subjects n (%): 1 (9.1%)
  Somnolence, treatment-related adverse event, subjects n (%): 7 (63.6%)
[8]; [16]
  Disturbance in attention, treatment-related adverse event, subjects n (%): 1 (10.0%)
  Dizziness, treatment-related adverse event, subjects n (%): 6 (60.0%)
  Dry mouth, treatment-related adverse event, subjects n (%): 6 (60.0%)
  Headache, treatment-related adverse event, subjects n (%): 1 (10.0%)
  Somnolence, treatment-related adverse event, subjects n (%): 6 (60.0%)
